Reference: patent US20170258774A1 (priority 2016, published 2017)

Assays:
BChE [1] = target: BChE (Rattus norvegicus, UniProt Q9JKC1); format: biochemical
BChE [2] = target: BChE (Cavia porcellus, UniProt H0V4F8); format: biochemical, guinea pig
BChE [3] = target: BChE (Homo sapiens, UniProt P06276); format: biochemical
BChE (Homo sapiens, UniProt P06276), sequence (P06276 29-602): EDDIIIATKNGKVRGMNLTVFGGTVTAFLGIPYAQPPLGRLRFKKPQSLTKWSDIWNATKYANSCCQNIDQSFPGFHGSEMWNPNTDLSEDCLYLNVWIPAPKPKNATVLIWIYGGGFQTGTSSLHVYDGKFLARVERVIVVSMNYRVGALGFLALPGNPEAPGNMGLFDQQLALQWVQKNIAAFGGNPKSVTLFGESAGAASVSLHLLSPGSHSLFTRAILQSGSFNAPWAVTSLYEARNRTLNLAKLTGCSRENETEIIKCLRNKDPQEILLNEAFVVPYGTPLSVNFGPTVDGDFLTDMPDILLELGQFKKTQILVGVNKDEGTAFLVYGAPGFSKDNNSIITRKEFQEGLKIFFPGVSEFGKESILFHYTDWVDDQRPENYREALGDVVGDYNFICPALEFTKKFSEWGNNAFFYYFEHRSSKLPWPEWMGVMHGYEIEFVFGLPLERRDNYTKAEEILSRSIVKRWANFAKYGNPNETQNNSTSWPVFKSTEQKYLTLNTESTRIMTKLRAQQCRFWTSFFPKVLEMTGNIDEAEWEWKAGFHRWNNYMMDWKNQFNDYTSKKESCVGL

BChE (Rattus norvegicus, UniProt Q9JKC1), sequence (Q9JKC1 24-597 limits assumed): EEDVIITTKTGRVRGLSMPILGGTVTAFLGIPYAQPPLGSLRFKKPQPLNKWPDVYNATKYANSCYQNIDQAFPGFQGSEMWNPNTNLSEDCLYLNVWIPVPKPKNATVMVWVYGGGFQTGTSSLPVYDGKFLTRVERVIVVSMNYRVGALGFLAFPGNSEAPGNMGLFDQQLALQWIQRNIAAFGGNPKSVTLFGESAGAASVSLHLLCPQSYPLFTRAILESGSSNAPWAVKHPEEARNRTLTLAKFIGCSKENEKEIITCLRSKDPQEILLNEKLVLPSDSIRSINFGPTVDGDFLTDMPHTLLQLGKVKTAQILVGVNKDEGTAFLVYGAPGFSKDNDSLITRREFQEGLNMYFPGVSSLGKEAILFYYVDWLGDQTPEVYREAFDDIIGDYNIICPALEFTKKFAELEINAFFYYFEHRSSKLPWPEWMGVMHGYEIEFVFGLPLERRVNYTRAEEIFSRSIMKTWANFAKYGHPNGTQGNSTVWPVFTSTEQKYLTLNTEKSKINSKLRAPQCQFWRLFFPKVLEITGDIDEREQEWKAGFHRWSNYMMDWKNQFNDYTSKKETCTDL
BChE (Cavia porcellus, UniProt H0V4F8), sequence (H0V4F8 29-602 limits assumed): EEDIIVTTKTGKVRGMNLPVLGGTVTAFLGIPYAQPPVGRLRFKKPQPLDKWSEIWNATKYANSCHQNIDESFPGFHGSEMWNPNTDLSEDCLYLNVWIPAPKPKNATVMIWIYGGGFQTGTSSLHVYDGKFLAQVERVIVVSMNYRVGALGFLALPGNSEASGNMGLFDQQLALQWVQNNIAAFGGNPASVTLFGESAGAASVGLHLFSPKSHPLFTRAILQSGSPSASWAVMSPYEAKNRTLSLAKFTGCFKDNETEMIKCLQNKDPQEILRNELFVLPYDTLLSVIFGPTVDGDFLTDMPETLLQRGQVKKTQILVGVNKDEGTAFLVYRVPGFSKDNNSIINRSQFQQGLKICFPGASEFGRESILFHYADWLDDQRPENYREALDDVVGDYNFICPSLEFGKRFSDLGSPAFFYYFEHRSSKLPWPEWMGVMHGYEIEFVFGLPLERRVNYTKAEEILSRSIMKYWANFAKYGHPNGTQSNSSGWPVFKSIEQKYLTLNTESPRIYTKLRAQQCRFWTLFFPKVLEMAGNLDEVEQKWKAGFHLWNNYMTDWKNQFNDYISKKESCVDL

SMILES | OP Inhibitory Concentrations of at least 80% BChE (BChE [1]) [µM] | OP Inhibitory Concentrations of at least 80% BChE (BChE [2]) [µM] | OP Inhibitory Concentrations of at least 80% BChE (BChE [3]) [µM] | BChE inhibitory potency relative to phorate oxon (BChE [1])
CCOP(=O)(OCC)Oc1ccc([N+](=O)[O-])cc1 [PXN, phosphoric acid diethyl 4-nitrophenyl ester] | 1.78 | 0.178 | 0.032 | –
CCOP(=O)(OCC)SC[S+]([O-])CC (centres unmarked) [PHOsox, phorate oxon sulfoxide] | 1.00 | – | – | ten-fold more potent
CCOP(=O)(OCC)SCSCC [PHO, phorate oxon] | 10.0 | 5.60 | 0.178 | –
